The source of these data is patent publication US11325899B2, “Benzofurane and benzothiophene derivatives as PGE2 receptor modulators” (IDORSIA PHARMACEUTICALS LTD, priority 2017, dated 2022).

What all share (format): cell-based
One assay concerns the target T1, EP2 receptor (Homo sapiens, UniProt P43116).
T1 construct: SF295 glioblastoma cells express high endogenous EP2 and no EP4; host or cells: SF295 glioblastoma cells
Put plainly: hEP2 cAMP assay (SF295 glioblastoma cells, HTRF cAMP, PGE2 stimulation). As to conditions: antagonistic activity. Here is the method:
(§1) The antagonistic activities of the compounds of formula (I) on the EP2 and EP4 receptors are also determined in accordance with the following experimental method.
(§2) Human tumor cell lines expressing endogenously either EP4 or EP2 are used and cAMP accumulation in cells upon PGE2 stimulation is monitored. SF295 glioblastoma cells express high endogenous EP2 and no EP4, whereas BT549 breast cancer cells, express high endogenous EP4 levels and very low EP2 levels.
(§3) As a detection method for cAMP the HTRF (homogeneous time resolved fluorescence) Cisbio kit (HTRF cAMP dynamic 2 kit 20′000 tests Cisbio Cat. #62AM4PEC) was used, which is based on a competitive immunoassay using a Cryptate-labeled anti-cAMP antibody and d2-labeled cAMP. Native cAMP produced by cells or unlabeled cAMP (for the standard curve) compete with exogenously added d2-labeled cAMP (acceptor) for binding to monoclonal anti-cAMP-Eu3+ Cryptate (donor). A FRET signal (Fluorescence Resonance Energy Transfer) is obtained only if the labeled anti-cAMP antibody binds the d2 labelled cAMP, thus the specific signal (i.e. energy transfer) is inversely proportional to the concentration of cAMP in the standard or sample.
The SF295 cells (NCI/No. 0503170) are detached from culture dishes with a cell dissociation buffer (Invitrogen, 13151-014), and collected in growing medium (GM: RPM1640 (Invitrogen 21875)/10% FCS, 1% Penicilin/streptomycin). Cells are counted washed and resuspended in assay buffer (AB; HBSS, 20 mM HEPES, 0.2% BSA; 2 mM IBMX). 4′000 cells in 5 μl of AB are seeded per well of a small volume 384 well plate (black with flat bottom, Greiner 784076).
Stock solutions of test compounds are made at a concentration of 10 mM in DMSO, and serially diluted in DMSO to concentrations required for inhibition dose response curves (tested concentration range 30 μM-0.4 nM; 30 μM-0.015 nM or 1 μM-0.01 nM).
PGE2 (Cayman 14010, stock solution: 75 μM in DMSO) is used as agonist at 75 nM final concentration, corresponding to EC80.
Two point five microliters of diluted compounds are transferred into the assay plate. Plate is pre-incubated 45 minutes at room temperature. Subsequently, 2.5 microliters of PGE2 (final conc. 75 nM) are transferred into the assay plate. Plate is incubated 30 minutes at room temperature. Five μl of each donor (anti-cAMP cryptate) and acceptor (cAMP-d2) are added and the plate is incubated another hour at room temperature in the dark and then read using a BMG LABTECH PHERAstar reader (Excitation: 337 nm, Emission: 620 and 665 nm).
The obtained Delta F (fluorescence) values (665 nm/620 nM) are converted into % cAMP values using the measurements of the cAMP calibrator provided in the kit. For each compound concentration the percentage of cAMP compared to DMSO control value as average±STDEV (each concentration is measured in duplicate) is calculated.
(§4) IC50 values and curves are generated with XLfit software (IDBS) using Dose-Response One Site model 203. When compounds were measured multiple times, mean values are given.

A further assay deals with T2, PTGER2 (EP2) (Homo sapiens, UniProt P43116).
T2 construct: host or cells: HEK 293 (PathHunter PTGER2 b-arrestin cell line)
T2 sequence (P43116 whole entry): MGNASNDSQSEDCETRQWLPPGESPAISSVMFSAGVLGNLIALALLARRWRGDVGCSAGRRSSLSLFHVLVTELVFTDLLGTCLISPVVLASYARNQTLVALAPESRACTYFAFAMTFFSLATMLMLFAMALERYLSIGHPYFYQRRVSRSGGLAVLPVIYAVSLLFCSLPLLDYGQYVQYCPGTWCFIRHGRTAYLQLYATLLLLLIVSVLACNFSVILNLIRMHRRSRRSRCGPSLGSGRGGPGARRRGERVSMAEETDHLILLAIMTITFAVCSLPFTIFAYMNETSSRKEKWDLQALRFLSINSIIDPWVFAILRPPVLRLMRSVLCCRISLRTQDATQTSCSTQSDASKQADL
Description: hEP2 b-arrestin assay (PathHunter HEK 293 PTGER2 b-arrestin cells). As to conditions: antagonistic activity, beta-arrestin assay; read-out: hEP2 b-arr IC50. The procedure, abridged:
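PathHunter HEK293 cells with ProLink-tagged EP2 and EA-β-arrestin 2 preincubated 15 min at 37 °C with compound (10 μM-2 nM or 1 μM-0.2 nM), then stimulated 120 min with 5 μM PGE2 (EC80). β-gal complementation read by chemiluminescence; IC50 from duplicate dose-response versus DMSO.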

A further assay addresses T3, EP4 receptor (Homo sapiens, UniProt P35408).
T3 construct: BT549 breast cancer cells, express high endogenous EP4 levels and very low EP2 levels; host or cells: BT549 breast cancer cells
Description: hEP4 cAMP assay (BT549 breast cancer cells, HTRF cAMP, PGE2 stimulation). As to conditions: antagonistic activity, PGE2 6 nM (EC80). On the procedure: as §1, §2, §3
The BT549 cells (NCI/No. 0507282) are detached from culture dishes with a cell dissociation buffer (Invitrogen, 13151-014), and collected in growing medium (GM: RPMI1640 (Invitrogen 21875)/10% FCS, 1% Penicilin/streptomycin). Cells are counted washed and resuspended in assay buffer (AB; HBSS, 20 mM HEPES, 0.2% BSA; 2 mM IBMX). 4′000 cells in 5 μl of AB are seeded per well of a small volume 384 well plate (black with flat bottom, Greiner 784076).
Stock solutions of test compounds are made at a concentration of 10 mM in DMSO, and serially diluted in DMSO to concentrations required for inhibition dose response curves (tested concentration range 30 μM-0.4 nM; 30 μM-0.015 nM or 1 uM-0.01 nM).
PGE2 (Cayman 14010, stock solution: 6 μM in DMSO) is used as agonist at 6 nM final concentration, corresponding to EC80.
Two point five microliters of diluted compounds are transferred into the assay plate. Plate is pre-incubated 45 minutes at room temperature. Subsequently, 2.5 microliters of PGE2 (final conc. 6 nM) are transferred into the assay plate. Plate is incubated 30 minutes at room temperature. Five μl of each donor (anti-cAMP cryptate) and acceptor (cAMP-d2) are added and the plate is incubated another hour at room temperature in the dark and then read using a BMG LABTECH PHERAstar reader (Excitation:337 nm, Emission:620 and 665 nm).
The obtained Delta F(fluorescence) values (665 nm/620 nM) are converted into % cAMP values using the measurements of the cAMP calibrator provided in the kit. For each compound concentration the percentage of cAMP compared to DMSO control value as average±STDEV (each concentration is measured in duplicate) is calculated.
as §4

Another assay deals with T4, PTGER4 (EP4) (Homo sapiens, UniProt P35408).
T4 construct: host or cells: HEK 293 (PathHunter PTGER4 b-arrestin cell line)
T4 sequence (P35408 whole entry): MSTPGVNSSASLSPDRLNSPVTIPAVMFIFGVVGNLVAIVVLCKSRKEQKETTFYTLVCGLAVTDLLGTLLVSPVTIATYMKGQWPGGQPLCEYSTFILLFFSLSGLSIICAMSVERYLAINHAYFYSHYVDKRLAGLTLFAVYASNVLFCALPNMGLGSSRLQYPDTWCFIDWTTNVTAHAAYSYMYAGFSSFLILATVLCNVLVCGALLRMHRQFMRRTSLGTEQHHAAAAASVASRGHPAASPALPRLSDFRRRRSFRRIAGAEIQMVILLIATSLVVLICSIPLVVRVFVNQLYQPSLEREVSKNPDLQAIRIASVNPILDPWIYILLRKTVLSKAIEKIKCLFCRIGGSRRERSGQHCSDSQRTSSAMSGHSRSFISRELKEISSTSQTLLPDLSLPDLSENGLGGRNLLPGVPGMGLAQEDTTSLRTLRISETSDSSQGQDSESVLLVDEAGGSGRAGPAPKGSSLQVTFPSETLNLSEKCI
Description: hEP4 b-arrestin assay (PathHunter HEK 293 PTGER4 b-arrestin cells). As to conditions: antagonistic activity, beta-arrestin assay; read-out: hEP4 b-arr IC50. The procedure, abridged:
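PathHunter HEK 293 cells expressing ProLink-tagged human EP4 and EA-β-arrestin 2, seeded 24 h before. Compounds (10 μM–2 nM or 1 μM–0.2 nM) preincubated 15 min at 37 °C, then 20 nM PGE2 (EC80) for 120 min at 37 °C. β-gal complementation luminescence read; IC50 from duplicate dose-response curves versus DMSO control.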

T3 sequence (P35408 whole entry): as above
T1 sequence (P43116 whole entry): as the sequence (P43116 whole entry) above

`Cc1sc2c(C)cc(F)cc2c1CCNc1cc(-c2cc3ccc(C(=O)O)cc3[nH]2)ncn1` [Example 80, 2-{6-[2-(5-Fluoro-2,7-dimethyl-benzo[b]thiophen-3-yl)-ethylamino]-pyrimidin-4-yl}-1H-indole-6-carboxylic acid]: the values for the IC50 against EP2 receptor, on PTGER2 (EP2) and at EP4 receptor were 20 nM, 13 nM and 306 nM, respectively.

With `CCCc1cc(-c2cc(NCCc3c(C)sc4c(C)cc(F)cc34)ncn2)cc(F)c1C(=O)O` [Example 93, 2-Fluoro-4-{6-[2-(5-fluoro-2,7-dimethyl-benzo[b]thiophen-3-yl)-ethylamino]-pyrimidin-4-yl}-6-propyl-benzoic acid], the IC50 against EP2 receptor came to 35 nM; on PTGER2 (EP2) it was 36 nM; at EP4 receptor, 362 nM.

As for `Cc1sc2c(C)cc(F)cc2c1CCNc1cc(-c2ccc(C(=O)O)c(CC(C)C)c2)ncn1` [Example 94, 4-{6-[2-(5-Fluoro-2,7-dimethyl-benzo[b]thiophen-3-yl)-ethylamino]-pyrimidin-4-yl}-2-isobutyl-benzoic acid], the IC50 against EP2 receptor came to 92 nM; at PTGER2 (EP2) it was 45 nM; against EP4 receptor it was 302 nM.

`CCOc1cc(-c2cc(NCCc3c(C)oc4c(OC)cc(Cl)cc34)ncn2)ccc1CC(=O)O` [Example 106, (4-{6-[2-(5-Chloro-7-methoxy-2-methyl-benzofuran-3-yl)-ethylamino]-pyrimidin-4-yl}-2-ethoxy-phenyl)-acetic acid]: the figures for the half-maximal inhibitory concentration (IC50) against EP2 receptor, on PTGER4 (EP4) and on EP4 receptor were 396 nM, 159 nM and 247 nM, respectively.

With `CCOc1cc(-c2cc(NCCc3c(C)oc4c(Cl)cccc34)ncn2)ccc1CC(=O)O` [Example 108, (4-{6-[2-(7-Chloro-2-methyl-benzofuran-3-yl)-ethylamino]-pyrimidin-4-yl}-2-ethoxy-phenyl)-acetic acid], the IC50 was found to be 107 nM on EP2 receptor, 31 nM at PTGER2 (EP2) and 264 nM against EP4 receptor.

Regarding `CCOc1cc(-c2cc(NCCc3c(C)sc4c(C)ccc(Cl)c34)ncn2)ccc1CC(=O)O` [Example 111, (4-{6-[2-(4-Chloro-2,7-dimethyl-benzo[b]thiophen-3-yl)-ethylamino]-pyrimidin-4-yl}-2-ethoxy-phenyl)-acetic acid], the IC50 against EP2 receptor was found to be 561 nM; on PTGER4 (EP4) it was 197 nM; against EP4 receptor, 433 nM.

Take `CCOc1cc(-c2cc(NCCc3c(C)sc4c(Cl)cc(F)cc34)ncn2)ccc1CC(=O)O` [Example 113, (4-{6-[2-(7-Chloro-5-fluoro-2-methyl-benzo[b]thiophen-3-yl)-ethylamino]-pyrimidin-4-yl}-2-ethoxy-phenyl)-acetic acid]: the IC50 against EP2 receptor came to 284 nM; on PTGER4 (EP4), 209 nM; at EP4 receptor, 765 nM.

Regarding `CCOc1cc(-c2cc(NCCc3c(C)sc4c(Cl)ccc(Cl)c34)ncn2)ccc1CC(=O)O` [Example 114, (4-{6-[2-(4,7-Dichloro-2-methyl-benzo[b]thiophen-3-yl)-ethylamino]-pyrimidin-4-yl}-2-ethoxy-phenyl)-acetic acid], the 50% inhibitory concentration (IC50) stood at 477 nM on EP2 receptor, 246 nM on PTGER4 (EP4) and 781 nM against EP4 receptor.

With `CCOc1cc(-c2cc(NCCc3c(C)oc4c(C)cc(F)cc34)ncn2)ccc1OCC(=O)O` [Example 124, (2-Ethoxy-4-{6-[2-(5-fluoro-2,7-dimethyl-benzofuran-3-yl)-ethylamino]-pyrimidin-4-yl}-phenoxy)-acetic acid], the IC50 against EP2 receptor came out at 115 nM; at PTGER2 (EP2) it was 26 nM; against EP4 receptor, 310 nM.

For `CCOc1cc(-c2cc(NCCc3c(C)sc4c(C)cc(F)cc34)ncn2)ccc1NC(=O)C(=O)O` [Example 145, N-(2-Ethoxy-4-{6-[2-(5-fluoro-2,7-dimethyl-benzo[b]thiophen-3-yl)-ethylamino]-pyrimidin-4-yl}-phenyl)-oxalamic acid], the IC50 at EP2 receptor was determined as 76 nM; on PTGER2 (EP2), 13 nM; against EP4 receptor it was 271 nM.

With `CCOc1cc(-c2cc(NCCc3c(C)sc4c(C)cc(F)cc34)ncn2)sc1-c1noc(=O)[nH]1` [Example 159, 3-(3-Ethoxy-5-{6-[2-(5-fluoro-2,7-dimethyl-benzo[b]thiophen-3-yl)-ethylamino]-pyrimidin-4-yl}-thiophen-2-yl)-[1,2,4]oxadiazol-5(4H)-one [tautomeric form: 3-(3-ethoxy-5-(6-((2-(5-fluoro-2,7-dimethylbenzo[b]thiophen-3-yl)ethyl)amino)pyrimidin-4-yl)thiophen-2-yl)-[1,2,4]oxadiazol-5-ol]], the IC50 is 11 nM against EP2 receptor, 3 nM at PTGER4 (EP4) and 5 nM at EP4 receptor.

Turning to “(4-{6-[2-(4,5-Difluoro-7-methoxy-2-methyl-benzofuran-3-yl)-ethylamino]-pyrimidin-4-yl}-2-ethoxy-phenoxy)-acetic acid [Example 123]”, the values for the IC50 against EP2 receptor, on PTGER4 (EP4) and against EP4 receptor were 359 nM, 142 nM and 219 nM, respectively.

For orientation: IC50 means the concentration at which inhibition is half-maximal.
